Source: patent publication US9062028B2, “Bicyclic nitrogen containing heteroaryl TGR5 receptor modulators” (Bristol-Myers Squibb Company, priority 2011, dated 2015)
Where a name gives a salt, the structure may show the parent alone.

Key:
recombinant human DGAT1 = target: T1, recombinant human DGAT1 (Homo sapiens, UniProt O75907); assay: Diacylglycerol Acyltransferase (DGAT) Assay; format: biochemical; conditions: membranes from Sf9 cells expressing recombinant human DGAT1; 2-monooleoylglycerol and [3H]-oleoyl-CoA as substrates; read-out: IC50 against the DGAT1 enzyme
T1 construct: made in house; host or cells: Sf9 insect cells (baculovirus), membrane preparation
T1 sequence (O75907 1-488): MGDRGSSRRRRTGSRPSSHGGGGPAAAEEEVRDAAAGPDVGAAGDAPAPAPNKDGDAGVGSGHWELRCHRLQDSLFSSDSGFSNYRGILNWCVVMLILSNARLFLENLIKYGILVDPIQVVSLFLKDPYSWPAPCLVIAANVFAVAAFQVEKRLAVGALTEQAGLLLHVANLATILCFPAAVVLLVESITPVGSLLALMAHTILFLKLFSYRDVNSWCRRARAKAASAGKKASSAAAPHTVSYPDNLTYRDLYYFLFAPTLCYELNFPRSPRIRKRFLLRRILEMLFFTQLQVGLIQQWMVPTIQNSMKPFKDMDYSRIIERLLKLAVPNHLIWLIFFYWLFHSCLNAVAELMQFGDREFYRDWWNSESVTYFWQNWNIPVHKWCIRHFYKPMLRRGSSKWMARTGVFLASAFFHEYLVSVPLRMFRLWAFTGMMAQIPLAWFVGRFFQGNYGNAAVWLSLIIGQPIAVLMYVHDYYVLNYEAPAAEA
Protocol: Diacylglycerol Acyltransferase (DGAT) Assay
DGAT1 enzyme was assayed using membranes isolated from Sf9 cells expressing the recombinant human DGAT1 cDNA with 2-monooleoylglycerol and [^3H]-oleoyl-CoA as substrates as described by Seethala et al. (Anal Biochem., 383(2):144-150 (Dec. 15, 2008)). Briefly, the assays were conducted in 384-well plates in a total volume of 30 μl at 25° C. In each assay, 200 ng of recombinant human DGAT1 membrane was incubated with 10 μM of 2-monooleoylglycerol and 15 μM of [^3H]-oleoyl-CoA in 100 mM potassium phosphate (pH 7.4) for 20 min with various concentrations of compounds delivered in DMSO. The assay was terminated by the addition of 20 μl of Stopping Solution (7.5 mg/ml Yittrium Oxide Polylysine beads, 3.3 mg/ml Fraction V BSA and 200 μM Mercuric chloride in 50 mM HEPES, pH 7.4). The signal was measured 1 h after quenching the reaction using LEADSEEKER^SM for 5 minutes. To calculate the degree of inhibition, the zero level of enzyme activity (blank) was defined by the above assay procedure using membrane form Sf9 cell uninfected with baculovirus (Naive) and the 100% level of DGAT1 enzyme activity was defined by human […] DGAT1 assay with the vehicle DMSO. The IC50s of inhibitors were determined by logistic 4 parameter equation in XL-fit.

recombinant human TGR5 = target: T2, recombinant human TGR5 (Homo sapiens, UniProt Q8TDU6); assay: cAMP assay (cAMP accumulation, HTRF) in CHOK1 cells stably expressing TGR5; format: cell-based; conditions: CHOK1 cells stably expressing human TGR5, 30 minutes at RT, 1% DMSO
T2 construct: expressed in transfected cells
T2 sequence (Q8TDU6 1-330): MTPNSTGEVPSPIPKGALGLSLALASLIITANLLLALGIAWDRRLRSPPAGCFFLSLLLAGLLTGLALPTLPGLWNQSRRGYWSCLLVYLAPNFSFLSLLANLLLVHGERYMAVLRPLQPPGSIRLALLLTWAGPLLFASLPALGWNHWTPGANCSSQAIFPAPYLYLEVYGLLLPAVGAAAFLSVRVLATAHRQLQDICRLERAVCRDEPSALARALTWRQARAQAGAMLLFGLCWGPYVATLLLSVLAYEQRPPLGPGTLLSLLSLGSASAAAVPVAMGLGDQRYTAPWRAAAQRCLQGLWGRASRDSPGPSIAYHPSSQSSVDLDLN
Procedure, shortened: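 Agonist-induced cAMP accumulation: stable TGR5-CHOK1 cells treated 30 min at RT with compound (1% DMSO) plus 0.1 mM IBMX. HTRF ratio converted to nM cAMP via standard curve; EC50 from four-parameter logistic fit, midpoint between baseline and maximum.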

Row | Compound | IC50 (recombinant human DGAT1) | EC50 (recombinant human TGR5)
1 | Cc1cccc(OCCCC(=O)N2CC3CC3c3c(-c4cnn(Cc5c(F)cc(C(=O)NCCC[C@H](N)C(=O)O)cc5Cl)c4)cccc32)c1C (stereo partly drawn) [Example 69A, (2S)-2-Amino-5-(3-chloro-4-((4-(3-(4-(2,3-dimethylphenoxy)butanoyl)-1a,2,3,7b-tetrahydro-1H-cyclopropa[c]quinolin-7-yl)-1H-pyrazol-1-yl)methyl)-5-fluorobenzamido)pentanoic acid] | > 10000 nM | –
2 | Cc1cccc(OCCCC(=O)N2CCCc3c(-c4cnn(Cc5c(F)cc(C(=O)NCCC(=O)O)cc5Cl)c4)cccc32)c1C [Example 176, 3-(3-Chloro-4-((4-(1-(4-(2,3-dimethylphenoxy)butanoyl)-1,2,3,4-tetrahydroquinolin-5-yl)-1H-pyrazol-1-yl)methyl)-5-fluorobenzamido) propanoic acid] | – | 47 nM
3 | Cc1cccc(OCCCC(=O)N2CCCc3c(-c4cccc(COC(=O)NCC(C)C(=O)O)c4)cccc32)c1C (stereo not shown) [Example 270, 3-((3-(1-(4-(2,3-Dimethylphenoxy)butanoyl)-1,2,3,4-tetrahydroquinolin-5-yl)benzyloxy)carbonylamino)-2-methylpropanoic acid] | – | 608 nM
4 | Cc1cccc(OCCCC(=O)N2CCCc3c(-c4cnn(Cc5cccc(C(=O)NCCS(=O)(=O)O)c5)c4C)cccc32)c1C [Example 168J, 2-(3-((4-(1-(4-(2,3-Dimethylphenoxy)butanoyl)-1,2,3,4-tetrahydroquinolin-5-yl)-5-methyl-1H-pyrazol-1-yl)methyl)benzamido) ethanesulfonic acid] | – | 643 nM
5 | Cc1cccc(OCCOC(=O)N2CCOc3c(-c4cnn(Cc5cccc(C(=O)O)c5)c4)cccc32)c1C [Example 29, 3-((4-(4-((2-(2,3-Dimethylphenoxy)ethoxy)carbonyl)-3,4-dihydro-2H-benzo[b][1,4]oxazin-8-yl)-1H-pyrazol-1-yl)methyl)benzoic acid] | – | 596 nM
6 | Cc1cccc(OCCCC(=O)N2CCCc3c(-c4cccc(COC(=O)NCC(F)(F)C(=O)O)c4)cccc32)c1C [Example 297, 3-((3-(1-(4-(2,3-Dimethylphenoxy)butanoyl)-1,2,3,4-tetrahydroquinolin-5-yl)benzyloxy)carbonylamino)-2,2-difluoropropanoic acid] | – | 687 nM
7 | Cc1cccc(OCCCC(=O)N2CCCc3c(-c4cccc(COC(=O)NC[C@H](NC(=N)N)C(=O)O)c4)cccc32)c1C [Example 168F, (S)-3-((3-(1-(4-(2,3-Dimethylphenoxy)butanoyl)-1,2,3,4-tetrahydroquinolin-5-yl)benzyloxy)carbonylamino)-2-guanidinopropanoic acid] | – | 590 nM
8 | Cc1cccc(OCCCC(=O)N2CCCc3c(-c4cnn(Cc5c(F)cc(C(=O)NCC(=O)O)cc5Cl)c4)cccc32)c1C [Example 177, 2-(3-Chloro-4-((4-(1-(4-(2,3-dimethylphenoxy)butanoyl)-1,2,3,4-tetrahydroquinolin-5-yl)-1H-pyrazol-1-yl)methyl)-5-fluorobenzamido)acetic acid] | – | 48 nM

The next lines start with the values.

Row | IC50 (recombinant human DGAT1) | EC50 (recombinant human TGR5) | Compound
9 | – | 196 nM | Cc1cccc(OCCCC(=O)N2CCCc3c(-c4cnn(Cc5cccc(C(=O)N[C@@H](Cc6ccccc6)C(=O)O)c5)c4)cccc32)c1C [Example 848, (S)-2-(3-((4-(1-(4-(2,3-Dimethylphenoxy)butanoyl)-1,2,3,4-tetrahydroquinolin-5-yl)-1H-pyrazol-1-yl)methyl)benzamido)-3-phenylpropanoic acid]
10 | – | 31 nM | Cc1c(Cl)cccc1OCCCC(=O)N1CCSc2c(-c3cnn(Cc4c(F)cc(C(=O)NCCC(=O)O)cc4Cl)c3)cccc21 [Example 577, 3-(3-Chloro-4-((4-(4-(4-(3-chloro-2-methylphenoxy)butanoyl)-3,4-dihydro-2H-benzo[b][1,4]thiazin-8-yl)-1H-pyrazol-1-yl)methyl)-5-fluorobenzamido)propanoic acid]
11 | – | 173 nM | Cc1c(Cl)cccc1OCCOC(=O)N1CC(F)(F)COc2c(-c3cnn(Cc4c(F)cc(C(=O)O)cc4Cl)c3)cccc21 [Example 336, 3-Chloro-4-((4-(5-((2-(3-chloro-2-methylphenoxy)ethoxy)carbonyl)-3,3-difluoro-2,3,4,5-tetrahydrobenzo[b][1,4]oxazepin-9-yl)-1H-pyrazol-1-yl)methyl)-5-fluorobenzoic acid]
12 | – | 173 nM | Cc1c(Cl)cccc1OCCCC(=O)N1CCCOc2c(-c3cnn(Cc4c(F)cc(C(=O)NCC(=O)O)cc4Cl)c3)cccc21 [Example 786, 2-(3-Chloro-4-((4-(5-(4-(3-chloro-2-methylphenoxy)butanoyl)-2,3,4,5-tetrahydrobenzo[b][1,4]oxazepin-9-yl)-1H-pyrazol-1-yl)methyl)-5-fluorobenzamido)acetic acid]
13 | – | 192 nM | Cc1c(Cl)cccc1OCCCC(=O)N1CCCc2c(-c3cnn(Cc4cccc(NC(=O)N[C@H](CCC(=O)O)C(=O)O)c4)c3)cccc21 [Example 534, (R)-2-(3-(3-((4-(1-(4-(3-Chloro-2-methylphenoxy)butanoyl)-1,2,3,4-tetra-hydroquinolin-5-yl)-1H-pyrazol-1-yl)methyl)phenyl)ureido) pentanedioic acid]
14 | – | 1300 nM | Cc1c(Cl)cccc1OCCCC(=O)N1CCCOc2c(-c3cnn(Cc4c(F)cc(C(=O)NCC[N+](C)(C)C)cc4F)c3)cccc21 [Example 724, 2-(4-((4-(5-(4-(3-Chloro-2-methylphenoxy)butanoyl)-2,3,4,5-tetrahydrobenzo[b][1,4]oxazepin-9-yl)-1H-pyrazol-1-yl)methyl)-3,5-difluorobenzamido)-N,N,N-trimethylethanaminium, TFA salt]
15 | – | 188 nM | Cc1c(Cl)cccc1OCCCC(=O)N1CCCCc2c(-c3cnn(Cc4cccc(C(=O)NCCC(=O)O)c4)c3)cccc21 [Example 730, 3-(3-((4-(1-(4-(3-Chloro-2-methylphenoxy)butanoyl)-2,3,4,5-tetrahydro-1H-benzo[b]azepin-6-yl)-1H-pyrazol-1-yl)methyl)benzamido)propanoic acid]
16 | – | 27 nM | CCOC(=O)CNC(=O)c1cccc(Cn2cc(-c3cccc4c3[C@H]3C[C@H]3CN4C(=O)CCCOc3cccc(Cl)c3C)cn2)c1 [Example 924B, Ethyl 2-(3-((4-((1aR,7bS)-3-(4-(3-chloro-2-methylphenoxy)butanoyl)-1a,2,3,7b-tetrahydro-1H-cyclopropa[c]quinolin-7-yl)-1H-pyrazol-1-yl)methyl)benzamido)acetate]
17 | – | 36 nM | Cc1c(Cl)cccc1OCCOC(=O)N1C[C@@H]2C[C@@H]2c2c(-c3cnn(Cc4cc(C(=O)NCS(=O)(=O)O)ccc4Cl)c3)cccc21 [Example 662, (4-Chloro-3-((4-((1aR,7bS)-3-((2-(3-chloro-2-methylphenoxy)ethoxy)carbonyl)-1a,2,3,7b-tetrahydro-1H-cyclopropa[c]quinolin-7-yl)-1H-pyrazol-1-yl)methyl)benzamido) methanesulfonic acid]
18 | – | 42 nM | Cc1cccc(OCCCC(=O)N2CCSc3c(-c4cnn(Cc5cccc(C(=O)NCCO)c5)c4)cccc32)c1C [Example 600, 3-((4-(4-(4-(2,3-Dimethylphenoxy)butanoyl)-3,4-dihydro-2H-benzo[b][1,4]thiazin-8-yl)-1H-pyrazol-1-yl)methyl)-N-(2-hydroxyethyl) benzamide]
19 | – | 28 nM | Cc1c(Cl)cccc1OCCOC(=O)N1C[C@@H]2C[C@@H]2c2c(-c3cnn(Cc4cc(C(=O)NC5(CC(=O)O)COC5)ccc4Cl)c3)cccc21 [Example 698, 2-(3-(4-Chloro-3-((4-((1aR,7bS)-3-((2-(3-chloro-2-methylphenoxy)ethoxy)carbonyl)-1a,2,3,7b-tetrahydro-1H-cyclopropa[c]quinolin-7-yl)-1H-pyrazol-1-yl)methyl)benzamido)oxetan-3-yl)acetic acid]
